Data taken from patent US4551534A, “Aralkyl or aryloxyalkyl 1,7-naphthyridine-3-carboxylic acid esters” (American Home Products Corporation, priority 1984, dated 1985).

Tests used:
[1] = system: isolated paced intact rabbit atria; experiment: Cardiac depressant (negative inotropic) effects in isolated paced intact rabbit atria; settings: 3 Hz, 30° C., cumulative 10^-9 M to 10^-5 M
Protocol: (§1) The potential for detrimental cardiac depressant (negative inotropic) effects of the compounds of this invention was assessed in isolated paced intact rabbit atria. […] Muscles (N=5-9/compound) were stimulated at a frequency of 3 Hz with a WPI stimulator for a 60 minute equilibration period. Changes in isometric force were recorded as described for the aortic smooth muscle experiments,supra. […]

[2] = system: rabbit aortic smooth muscle; experiment: Ca+2 antagonism: relaxation of KCl-depolarized rabbit aortic smooth muscle strips; settings: Oryctolagus cuniculus, 20 min; 10^-5 M; 100 mM KCl contraction; mean of two experiments 20 minutes after addition; read-out: percent relaxation (P.R.)
Protocol: The composition of PSS was as follows (mM): NaCl 112, KCl 5, NaHCO3 25, KH2 PO4 1, MgSO4 1.2, CaCL2 2.5, dextrose 10. The lower end of each tissue strip was attached to a fixed post and the upper end to a Statham UC-4 transducer. Changes in force development were recorded on a Beckman Dynograph Polygraphic Recorder.
Following equilibration, the muscles were contracted in a depolarizing solution of PSS in which 100 mM KCl was substituted for an equimolar concentration of NaCl. Following attainment of steady-state isometric force (20 min.), the test compound was added to afford a final concentration of 1×10^-5 M. The inhibitory effect, expressed as percent relaxation, was determined from the mean of two experiments twenty minutes after the addition of the compound being tested.
(§2) The following examples illustrate the preparation of a representative number of compounds of this invention. After each example, the Ca^+2 antagonist activity of the compound is presented in terms of percent relaxation (P.R.) at 10^-5 M concentration unless indicated otherwise. Similarly, the antihypertensive activity is reported in terms of millimeters mercury (mmHg) blood pressure (B.P.) reduction at the stated time post 50 mg/kg oral dosing or other dosing as indicated.

[3] = system: spontaneously hypertensive rats; experiment: Hypotensive in vivo effect: systolic blood pressure of spontaneously hypertensive rats; set-up: species or system rat; settings: 50 mg/kg oral, group of 4 spontaneously hypertensive rats
Protocol: The hypotensive in vivo effect of the compounds of this invention was determined by measuring changes in the systolic blood pressure of spontaneously hypertensive rats with a Decker Caudal Plethysmograph. The compound being tested was administered to a group of 4 rats and their systolic pressure was determined prior to and at 1.5 and 4 hours after compound administration. Initial testing was done by oral administration of the compound at a dose of 50 mg/kg body weight. Results (mmHg) are expressed as decreases in systolic blood pressure.
as §2

[4] = Cardiac depressant (negative inotropic) effects in isolated paced intact rabbit atria; settings: isolated paced atria, 10^-5 M, read-out: inhibition (of developed isometric force) at the highest concentration
Protocol: as §1

[5] = system: spontaneously hypertensive rats; experiment: Hypotensive in vivo effect: systolic blood pressure of spontaneously hypertensive rats; set-up: species or system rat; settings: 50 mg/kg oral

IC25 (concentration which produces 25% inhibition of isometric force) [1]	inhibition at 10 µM [4]	Structure (SMILES)	inhibition at 10 µM [2]	blood pressure (B.P.) reduction at 1.5 hours [3]	blood pressure (B.P.) reduction at 4 hours [3]	blood pressure (B.P.) reduction at 24 hours [5]
0.8 µM	–	CCOC(=O)C1=C(C)NC(C)=C(C(=O)OC)C1c1cccc(Cl)c1Cl (stereo not shown) [felodipine, reference compound]	–	–	–	–
7 µM	–	COC(=O)C1=C(C)NC2=C(C(=O)CN(CC(O)COc3cccc(C)c3C)C2)C1c1cccc(Cl)c1Cl (stereo not shown) [Example 8, 4-(2,3-Dichlorophenyl)-7-[3-(2,3-dimethylphenoxy)-2-hydroxypropyl]-1,4,5,6,7,8-hexahydro-2-methyl-5-oxo-1,7-naphthyridine-3-carboxylic acid methyl ester]	50%	-16 mmHg	-41 mmHg	–
> 10 µM	–	COC(=O)C1=C(C)NC2=C(C(=O)CN(CC(O)COc3cccc(C)c3C)C2)C1c1c(F)ccc(Cl)c1Cl (stereo not shown) [Example 4, 4-(2,3-Dichloro-6-fluorophenyl)-7-[3-(2,3-dimethylphenoxy)-2-hydroxypropyl]1,4,5,6,7,8-hexahydro-2-methyl-5-oxo-1,7-naphthyridine-3-carboxylic acid methyl ester]	42%	-56 mmHg	-72 mmHg	–
6 µM	–	COC(=O)C1=C(C)NC2=C(C(=O)CN(CC(O)COc3cccc(C)c3C)C2)C1c1c(F)c(F)cc(F)c1F (stereo not shown) [Example 3]	63%	-25 mmHg	-56 mmHg	–
0.35 µM	–	CCOC(=O)C1=C(C)NC(C)=C(C(=O)OC)C1c1cccc([N+](=O)[O-])c1 (stereo not shown) [nitrendipine, reference compound]	–	–	–	–
5 µM	–	COC(=O)C1=C(C)NC2=C(C(=O)CN(CC(O)COc3ccc(OC)cc3)C2)C1c1c(F)c(F)c(F)c(F)c1F (stereo not shown) [Example 7, 1,4,5,6,7,8-Hexahydro-7-[3-(4-methoxyphenoxy)-2-hydroxypropyl]-2-methyl-5-oxo-4-(pentafluorophenyl)-1,7-naphthyridine-3-carboxylic acid methyl ester]	73%	-31 mmHg	-56 mmHg	–
–	–	COC(=O)C1=C(C)NC2=C(C(=O)CN(CC(O)c3ccccc3)C2)C1c1c(F)c(F)c(F)c(F)c1F (stereo not shown) [Example 11, 1,4,5,6,7,8-Hexahydro-7-(2-hydroxy-2-phenylethyl)-2-methyl-5-oxo-4-pentafluorophenyl-1,7-naphthyridine-3-carboxylic acid methyl ester]	66.5%	-58 mmHg	-73 mmHg	–
> 10 µM	–	COC(=O)C1=C(C)NC2=C(C(=O)CN(CC(O)COc3cccc(Cl)c3Cl)C2)C1c1ccccc1C (stereo not shown) [Example 5, 7-[3-(2,3-Dichlorophenoxy)-2-hydroxypropyl]-1,4,5,6,7,8-hexahydro-2-methyl-4-(2-methylphenyl)-5-oxo-1,7-naphthyridine-3-carboxylic acid methyl ester]	62%	-23 mmHg	-25 mmHg	–
4.5 µM	–	COC(=O)C1=C(C)NC2=C(C(=O)CN(CC(O)COc3ccccc3)C2)C1c1c(F)c(F)c(F)c(F)c1F (stereo not shown) [Example 6, 1,4,5,6,7,8-Hexahydro-2-methyl-5-oxo-4-(pentafluorophenyl)-7-(3-phenoxy-2-hydroxypropyl)-1,7-naphthyridine-3-carboxylic acid methyl ester]	67%	-54 mmHg	-80 mmHg	–
> 10 µM	–	COC(=O)C1=C(C)NC2=C(C(=O)CN(CC(O)COc3cccc(C)c3C)C2)C1c1ccccc1C (stereo not shown) [Example 1, 7-[3-(2,3-Dimethylphenoxy)-2-hydroxypropyl]-1,4,5,6,7,8-hexahydro-2-methyl-4-(2-methylphenyl)-5-oxo-1,7-naphthyridine-3-carboxylic acid methyl ester]	91%	-30 mmHg	-34 mmHg	–
–	< 20%	NCCCCCCNS(=O)(=O)c1cccc2c(Cl)cccc12 [Example W-7, reference compound]	–	–	–	–
3.5 µM	–	COC(=O)C1=C(C)NC2=C(C(=O)CN(CCCOc3ccccc3)C2)C1c1c(F)c(F)c(F)c(F)c1F (stereo not shown) [Example 9, 1,4,5,6,7,8-Hexahydro-2-methyl-5-oxo-4-(pentafluorophenyl)-7-(3-phenoxypropyl)-1,7-naphthyridine-3-carboxylic acid methyl ester]	61%	-43 mmHg	-41 mmHg	–
5 µM	–	COC(=O)C1=C(C)NC2=C(C(=O)CN(CC(O)COc3cccc(C)c3C)C2)C1c1c(F)c(F)c(F)c(F)c1F (stereo not shown) [Example 2, 7-[3-(2,3-Dimethylphenoxy)-2-hydroxypropyl]-1,4,5,6,7,8-hexahydro-2-methyl-5-oxo-4-(pentafluorophenyl)-1,7-naphthyridine-3-carboxylic acid methyl ester]	65%	-56 mmHg	-86 mmHg	-28 mmHg
3 µM	–	COC(=O)C1=C(C)NC2=C(C(=O)CN(CC(O)CCc3ccccc3)C2)C1c1c(F)c(F)c(F)c(F)c1F (stereo not shown) [Example 10, 1,4,5,6,7,8-Hexahydro-7-(2-hydroxy-4-phenylbutyl)-2-methyl-5-oxo-4-(pentafluorophenyl)-1,7-naphthyridine-3-carboxylic acid methyl ester]	80.5%	-41 mmHg	-51 mmHg	–

Structure (SMILES)	IC25 (concentration which produces 25% inhibition of isometric force) [1]	inhibition at 10 µM [4]	inhibition at 10 µM [2]	blood pressure (B.P.) reduction at 1.5 hours [3]	blood pressure (B.P.) reduction at 4 hours [3]	blood pressure (B.P.) reduction at 24 hours [5]
COc1ccc(CCN(C)CCCC(C#N)(c2ccc(OC)c(OC)c2)C(C)C)cc1OC (stereo not shown) [Verapamil, reference compound]	0.06 µM	–	–	–	–	–
COC(=O)C1=C(C)NC(C)=C(C(=O)OC)C1c1ccccc1[N+](=O)[O-] [nifedipine, reference compound]	0.05 µM	–	–	–	–	–
